According to PubChem BioAssay (NCI):
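48-hour exposure; five concentrations; linearly interpolated endpoints. Here, GI50 denotes the concentration required for 50% inhibition of growth. Definition used: TGI = concentration required for complete inhibition of growth.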

Assays:
Assay in all cases: NCI anticancer screen, dose series, 48 h
UACC-62 melanoma = tested on: UACC-62 melanoma
MDA-MB-231 breast = tested on: MDA-MB-231 breast
SW-620 colon = tested on: SW-620 colon
T-47D breast = tested on: T-47D breast
OVCAR-8 ovarian = tested on: OVCAR-8 ovarian
MCF7 breast = tested on: MCF7 breast
UACC-257 melanoma = tested on: UACC-257 melanoma
SK-MEL-2 melanoma = tested on: SK-MEL-2 melanoma
SN12C renal = tested on: SN12C renal
A498 renal = tested on: A498 renal

SMILES	TGI (UACC-62 melanoma) [µM]	TGI (MDA-MB-231 breast) [µM]	TGI (SW-620 colon) [µM]	TGI (T-47D breast) [µM]	TGI (OVCAR-8 ovarian) [µM]	TGI (MCF7 breast) [µM]	TGI (UACC-257 melanoma) [µM]	TGI (SK-MEL-2 melanoma) [µM]	TGI (SN12C renal) [µM]	TGI (A498 renal) [µM]	GI50 (UACC-62 melanoma) [µM]	GI50 (MDA-MB-231 breast) [µM]	GI50 (SW-620 colon) [µM]	GI50 (T-47D breast) [µM]	GI50 (OVCAR-8 ovarian) [µM]	GI50 (MCF7 breast) [µM]	GI50 (UACC-257 melanoma) [µM]	GI50 (SK-MEL-2 melanoma) [µM]	GI50 (A498 renal) [µM]
COC(=O)C1(Cc2ccc3c(c2)CCC3)Cc2ccc3c(c2C1=O)CCC3 (centres undefined)	> 48.5	> 87.6	> 71.1	> 68.6	> 100	> 20.4	> 100	15.4	> 100	46.5	–	–	–	–	–	–	–	–	–
CCOC(=O)/C(C(N)=O)=C(\O)C(=O)/C=C(\O)c1ccc(Cl)cc1	43.1	32.2	50.1	47.9	31.7	62.4	32.2	34.4	32.2	> 100	–	–	–	–	–	–	–	–	–
O=C(N/N=C\c1ccc(Cl)cc1)Nc1ccc2ccccc2c1	> 100	> 100	> 100	> 100	73.2	> 100	> 100	> 100	> 100	> 100	–	–	–	–	–	–	–	–	–
O=C1OC(C(O)CO)C(C(O)CO)OC1=O (centres undefined)	> 10	> 10	> 10	> 10	> 10	> 10	> 10	–	> 10	> 10	–	–	–	–	–	–	–	–	–
CC1[C@@]2(O[C@@H]3C=C4C5CCC6Cc7nc8c(nc7C[C@@]6(C)C5C[C@H](O)[C@@]4(C)[C@]13O)CC1CCc3c(cc4c5c3C(O)C[C@H]5[C@@H](C)C3(O4)OC(C)(C)CC3O)[C@]1(C)C8)O[C@@](C)(CO)C[C@@H]2O (some centres undefined)	0.748	–	1.1	–	> 3.72	> 3.72	> 3.72	> 3.72	> 3.72	0.59	–	–	–	–	–	–	–	–	–
Nc1cc(OCC2CCCCC2)nc(N)n1	> 100	> 100	> 100	–	> 100	–	> 100	> 100	> 100	–	–	–	–	–	–	–	–	–	–
O=C1CCCC2=C1CC1=C(CCCC1=O)N2c1ccc(Cl)cc1	> 100	> 100	> 100	–	> 100	> 100	> 100	–	> 100	> 100	–	–	–	–	–	–	–	–	–
O=C1c2c(c3c4cc(F)ccc4oc3c3[nH]c4ccccc4c23)C(=O)N1O	3.41	21.6	> 100	> 100	> 100	> 100	6.68	12.6	–	5.2	1.48	2.68	1.24	1.59	1.82	0.596	2.31	3.06	1.23
CCOP(=O)(OCC)C(c1ccc(F)cc1)N(C(=O)NC(F)(F)F)c1ccc(F)cc1 (centres undefined)	–	> 100	> 100	–	> 100	> 100	> 100	–	> 100	–	–	–	–	–	–	–	–	–	–
O=C(O)c1ccc2c(O)c(O)ccc2c1	–	68.5	> 100	> 100	47.9	> 100	50.5	67.3	27.7	97.9	–	–	–	–	–	–	–	–	–
O=c1c(NCc2ccccc2)c(C2(c3ccccc3F)SCCCS2)c1=O	> 100	> 100	> 100	> 100	> 100	> 100	> 100	> 100	> 100	> 100	–	–	–	–	–	–	–	–	–
CN1C/C(=C\c2cccs2)C2=NN(c3ccccc3)C(c3cccs3)C2C1 (centres undefined)	> 100	98.7	> 100	96.3	> 100	> 100	> 100	> 100	> 100	> 90.2	–	–	–	–	–	–	–	–	–
COc1cc(/C=C2\C(=O)N(c3cccc(NC(C)=O)c3)C(c3ccccc3)S2(=O)=O)cc(OC)c1OC (centres undefined)	> 100	> 100	> 100	> 100	> 100	> 100	> 100	> 100	> 100	> 100	–	–	–	–	–	–	–	–	–
N=C1OC(CN2CCN(c3ccccc3)CC2)CN1C(=O)Nc1ccccc1 (centres undefined)	> 100	> 100	> 100	> 100	> 100	> 100	> 100	> 100	> 100	> 100	–	–	–	–	–	–	–	–	–
COc1ccc2c(c1)/C(=C\c1c(Cl)nc3n1CCS3)C(=O)N2	16.3	27.2	> 100	32.7	> 100	48.5	25.8	–	53.3	33.2	–	–	–	–	–	–	–	–	–
COP(=O)(OC)C(N)Cc1c[nH]c2ccccc12 (centres undefined)	–	> 100	> 100	> 100	> 100	> 100	> 100	> 100	> 100	> 100	–	–	–	–	–	–	–	–	–
Cc1nc2c(Cl)cc(Cl)cc2c2c1CCO2	> 100	> 100	> 100	> 100	> 100	> 100	> 100	> 100	> 100	> 100	–	–	–	–	–	–	–	–	–
O=C(Cn1c2ccc(Br)cc2c2nc3ccccc3nc21)NCc1ccccc1	93.4	> 100	> 100	18.6	> 100	–	> 100	95.1	> 100	> 100	–	–	–	–	–	–	–	–	–
CCCC(=O)OCC1OC(n2cc(F)c(=O)[nH]c2=O)CC1OC(=O)CCC (centres undefined)	> 10	> 10	> 10	> 10	> 10	> 10	> 10	> 10	> 10	> 9.23	–	–	–	–	–	–	–	–	–
COc1cc(/C=C/C(=O)CC(=O)/C=C/c2cc(C)c(O)c(OC)c2)cc(C)c1O	> 100	> 100	> 100	> 100	> 100	> 100	> 100	> 100	> 100	> 100	–	–	–	–	–	–	–	–	–
O=[N+]([O-])c1ccc(C[P+]2(c3ccccc3)CCCCC2)cc1 (tested in a mixture with another compound)	> 100	–	> 100	–	> 100	–	> 100	> 100	> 100	> 100	–	–	–	–	–	–	–	–	–
